In US6355785B1, “Guanosine-rich oligonucleotide integrase inhibitors” (Aronex Pharmaceuticals, Inc., priority 1993, dated 2002):
Several values for one entry are separate records, joined by “and”; a condition that tells them apart may be missing. Identical values can stand only once. Like-named read-outs stand apart in the source and are kept apart here. Marks after values point to notes of the source that are not given here.

Legend:
[1] = target: T1, recombinant RT (HIV-1BH10) (Human immunodeficiency virus type 1 group M subtype B, UniProt P03366); assay: Reverse transcriptase enzyme inhibition assays; assay type: biochemical
T1 construct: Purified recombinant RT (HIV-1BH10) was obtained from the University of Alabama; purchased University of Alabama, Center for AIDS research (obtained from)

[2] = Thermal denaturation of oligomer fold (UV, Tm); assay type: physicochemical
U937 = assay type: cell-based, human
Method: (§1) Cytotoxicity Analysis. The cytotoxicity of T30177 was assayed as described above. […] The degree of cell proliferation was determined according to the manufacturer's instructions.
(§2) Cytotoxicity Assays. The cytotoxicity of T30177 was determined using several different cell lines and primary human cells as described above. The cytotoxicity profile obtained for log phase growing cells was variable depending upon the cell line used, while the slower growing PBMCs, PBLs, and macrophages all tolerated the compound at concentrations exceeding 100 μM as monitored using the trypan blue exclusion, [^3H]thymidine uptake, or [^3H]leucine uptake techniques.

CEMx174 = assay type: cell-based, human
Method: as §1, §2

MT2 = assay type: cell-based, human
Method: as §1, §2

MT4 = assay type: cell-based, human
Method: as §1, §2

AA5 = assay type: cell-based, human
Method: as §1, §2

[3] = Repeat-dose monkey study: coagulation parameters (aPTT); assay type: in vivo, cynomolgus monkeys
Method: Hematology and coagulation parameters. Hematology and coagulation parameters were determined 9-11 days prior to the start of the study, just prior to administering doses 1 (day 1) and 12 (day 23), five minutes after dosing (coagulation only), 30 minutes and 4 hours following dosing, one day after the 12th dose (day 24), and in recovery monkeys at sacrifice (day 37). The following were determined: red blood cell count and morphology, total and differential while blood cells, hemoglobin, hematocrit, prothrombin time, fibrinogen, mean cell hemoglobin, mean corpuscular volume, mean corpuscular hemoglobin concentration, platelet count, activate partial thromboplastin time, and D-dime. Hematology was determined at Sierra Nevada Laboratories (Reno, Nev.).

HIV-1 = conditions: 3.0 mg/kg every other day, 14-day treatment, three patients
SIVMAC251 = assay type: cell-based, simian immunodeficiency virus; conditions: SIVMAC251, MT4; read-out: IC50 virus production
[4] = test system: CD4- and gp120-mediated cell fusion; assay: cells; assay type: cell-based
[5] = human, up to 236 ug/mL

5′-gtggtgggtgggtgggt-3′ (GTGGTGGGTGGGTGGGT; phosphorothioate termini, further chemistry not given here) [T30177]
IC50 virus-induced cytopathogenicity (RSV (A2); RSV (A2)): >200 µg/mL
MCC minimum concentration altering normal cell morphology (RSV (A2); RSV (A2) assay): >400 μg/mL
IC50 ([1]; depending upon the template, read-out: 50% inhibitory value, viral reverse transcriptase): 1 to 10 µM
IC50 ([1]; template gapped duplex DNA, duplicate experiments, read-out: IC50 recombinant HIV-1 RT): > 5 µM and 8 µM and 10 µM
Tm ([2]; 1 mM KCl): 53 °C
Tm ([2]; 10 mM KCl, calculated from linear fit): 70* ° C.
Tm ([2]; 180 mM KCl, calculated from linear fit): 92* ° C.
CC50 (U937): > 100 µM
TC25 (U937): >100 µM
TC95 (U937): >100 µM
CC50 (CEMx174): 50 ± 5.2 µM
TC25 (CEMx174): 10 ± 2.5 µM
TC95 (CEMx174): >100 µM
CC50 (MT2): 61.2 ± 5.5 µM
TC25 (MT2): 27 ± 3.5 µM
TC95 (MT2): >100 µM
CC50 (MT4): 70 ± 7.1 µM
TC25 (MT4): 34 ± 4.0 µM
TC95 (MT4): >100 µM
CC50 (AA5): 94.2 ± 3.1 µM
TC25 (AA5): 45.66 ± 2.0 µM
TC95 (AA5): >100 µM
IC50 virus-induced cytopathogenicity (Polio virus-1; Polio virus-1): >200 µg/mL
MCC minimum concentration altering normal cell morphology (Polio virus-1; Polio virus-1 assay): ≧400 μg/mL
IC50 virus-induced cytopathogenicity (Coxsackie virus (B4); Coxsackie virus (B4)): >200 µg/mL
MCC minimum concentration altering normal cell morphology (Coxsackie virus (B4); Coxsackie virus (B4) assay): ≧400 μg/mL

5′-gtggtgggtgggtgggt-3′ [T30177] (GTGGTGGGTGGGTGGGT; phosphorothioate termini, further chemistry not given here)
IC50 virus-induced cytopathogenicity (Tacaribe): >50 µg/mL
MCC minimum concentration altering normal cell morphology (Tacaribe): >50 μg/mL
anticoagulation activity (aPTT) ([3]; 2.5 mg/kg): no anticoagulation activity
mean aPTT relative to pre-dose ([3]; 10 mg/kg, 5 minutes post-dosing, doses 1 and 12): approximately twice the pre-dose value
mean aPTT ([3]; 40 mg/kg, five minutes after dosing): exceeded the upper limit of the assay
no effect plasma AR177 concentration versus aPTT ([3]; cynomolgus monkey, in vivo): 60-100 μg AR177/mL
plasma AR177 concentration at doubling of aPTT ([3]; cynomolgus monkey, in vivo): 100-200 μg AR177/mL
plasma AR177 concentration at tripling of aPTT ([3]; cynomolgus monkey, in vivo): 220-300 μg AR177/mL
viral load (plasma HIV-1 RNA) (HIV-1): viral load was significantly reduced
IC50 (SIVMAC251): 1.5 ± 1.2 µM
fusion IC50 relative to virus infection assay IC50 [4]: approximately 100 fold
IC50 ([4]; read-out: IC50 CD4- and gp120-mediated cell fusion): 1 µM
complement CH50 [5]: no effect
